Data taken from article PMC2781551, “Antibody Complementarity-Determining Regions (CDRs): A Bridge between Adaptive and Innate Immunity” (PLoS ONE, 2009).

Assays:
[1] = test system: C. albicans strain (CA-6); experiment: In vitro candidacidal CFU assay; assay type: cell-based, Candida albicans; details: 100 µg/ml, CA-6 cells
Method: The origin and characteristics of the highly virulent C. albicans strain (CA-6) used in this study have been previously described. The culture was maintained by serial passages on Sabouraud agar (BioMérieux, Lyon, France). The yeast cells were harvested by suspending a single colony in saline, washed twice, counted in a hemocytometer and adjusted to the desired concentration.
The in vitro activity against CA-6 cells of mAb MoA synthetic CDRs at the concentration of 100 µg/ml was evaluated by a conventional Colony Forming Unit (CFU) assay as described elsewhere.

[2] = test system: peritoneal murine macrophages (PM); experiment: Cytokine production by peritoneal macrophages (ELISA); assay type: cell-based, mouse (Balb/c); details: 10 µg/ml, 5×10^6 cells/ml
Method: DC and CD4^+ T cells were separated from spleens of inbred Balb/c mice using N-418 or L3T4 mAb-conjugated MicroBeads (Miltenyi Biotec, Bergisch Gladbach, Germany), and magnetic separation was performed according to the manufacturer's instruction. Peritoneal murine neutrophils (PMN) and macrophages (PM) were collected 18 h or 4 days, respectively, after the intraperitoneal injection of 1 ml endotoxin-free 10% thioglycolate solution (Difco).
Unfractionated spleen cells (10×10^6/ml), recovered from Balb/c mice, were cultured in the presence or absence of mAb HuA and mAb MoA CDR peptides, LPS or NC (all 10 µg/ml) for 18 h in RPMI-1640 plus 10% FCS (complete medium) at 37°C and 5% CO2. After incubation, the supernatants were collected and tested for TNF-α and IL-6 levels by specific ELISA assays (Biosource, Camarillo, CA, USA). In selected experiments, PM (5×10^6/ml) were cultured as above described. After incubation, the supernatants were collected and tested for TNF-α and IL-6 levels by specific ELISA assays (Biosource). PM (5×10^6/ml) were cultured in the presence or absence of mouse VHCDR3, LPS, NC or SP (all at 10 µg/ml) for 1 or 18 h in complete medium at 37°C and 5% CO2. PM (5×10^6/ml) were cultured as above described in the presence or absence of wortmannin (4 nM) or SB203580 (0,2 µM) (both from Sigma). After incubation, the supernatants were collected and tested for TNF-α level by specific ELISA assays (Biosource). In selected experiments, PM (5×10^6/ml) were cultured in the presence or absence of VHCDR3, LPS, NC, SP and nine VHCDR3 alanine-substituted derivatives (all at 10 µg/ml) for 18 h in complete medium at 37°C and 5% CO2. After incubation, the supernatants were collected and tested for TNF-α level by specific ELISA assays (Biosource). PMN (5×10^6/ml) were cultured in the presence or absence of mAb MoA CDR peptides, LPS or NC (all 10 µg/ml) for 18 h in complete medium at 37°C and 5% CO2. After incubation, the supernatants were collected and tested for TNF-α and IL-6 levels by specific ELISA assays (Biosource). Cytokine titers were calculated by reference to standard curves, constructed with known amounts of recombinant cytokines.

IkBα = experiment: Phospho-IkBα Western blotting in PM; assay type: cell-based, mouse (Balb/c); details: PM 3×10^6/ml, 10 µg/ml, 1 h, Western blot, compared to NC, n = 5
Method: After incubation, cells were washed and lysated with Mammalian protein extraction reagent (M-PER) in the presence of protease and phosphatase inhibitors (all from Pierce, Rockford, IL). Protein concentration was determined with a BCA protein Assay Reagent kit (Pierce). The lysates (30 µg of each sample) were separated by sodium dodecyl-sulfate-10% PAGE, transferred to a nitrocellulose membrane (Pierce) for 1 h at 100 V in a blotting system (Bio-Rad) for Western Blot analysis, and the membranes were incubated over-night with rabbit polyclonal Abs to phospho-Akt (pAkt; dilution 1/1000), phospho-IkBα (pIkBα; dilution 1/1000) (all from Cell Signalling Technology, Beverly, MA) and rabbit polyclonal Ab to TLR-4 (dilution 1/200) (Santa Cruz Biotechnology Inc.) in blocking buffer. […] Immunoreactive bands were visualized and quantified by Chemidoc Instrument (Bio-Rad). In particular, a quantitative analysis of the region of interest drawn around the outer edge of the band, was performed based on the guidelines for the use of the Chemidoc Instrument (Bio-Rad). […] All the parallelograms that form a band create one unique three-dimensional solid structure on which the volume is calculated. […]

TLR-4 gene = TLR-4 gene expression in PM (quantitative RT-PCR); assay type: cell-based, mouse (Balb/c); details: PM 1×10^6/ml, 10 µg/ml, qPCR normalized against GADPH, n = 5
Method: After incubation, cells were lysed using Trizol reagent (Invitrogen, Carlsbad, CA), and total RNA was extracted. The reverse transcriptase (RT) reaction was performed using Moloney murine leukaemia virus reverse transcriptase (M-MLV RT), as described in the manufacturer's instructions (Invitrogen).
TNF-α, TLR-4, and GADPH clones for use as standards were prepared by PCR from cDNA derived from PM and cloned into p-Drive vector (Qiagen, S.p.A., Milano, Italy). These were verified by sequence analysis. Plasmid DNA was diluted 10-fold and the starting concentration for the dilution series was 10^8 gene copies/µl.
For each target gene, primers were selected using the Beacon Designer software (Bio-Rad, Hercules, CA). Real-time RT-PCR (quantitative RT-PCR) was performed in 96-well PCR plates using the SYBR green (all from BioRad). For real-time PCR reaction 100 ng/µl of reverse-transcribed RNA was used and cDNA was normalized according to GADPH as an internal NC gene. Amplification conditions were the same for TNF-α, TLR-4 and GADPH mRNAs assayed: 3 min at 95°C, 40 cycles of 10 s at 95°C and 30 s at 62°C. For the Melt Curve, the amplification condition was: 1 min at 50°C and 90 cycles of 10 s at 50°C. The experiments were performed using the iCycler IQ Multicolor Real-time PCR Detection System (BioRad).

TLR-4 = TLR-4 expression in PM (flow cytometry); assay type: cell-based, mouse (Balb/c); details: PM 1×10^6/ml, 10 µg/ml, 1 h, RPE-labelled mAb to TLR-4, FACScan, representative experiment out of five
Text: Data are reported as percentage of positive cells. […] Data are expressed as percentage of positive cells.

With GQYGNLWFAY [VHCDR3] the “candidacidal effect in vitro” value [1] was “ineffective”, the “TNF-α production by PM after 1 h” value ([2]; 1 h, n = 7) was “significant increase” and the “TNF-α production by PM” value ([2]; 18 h, P<0.05 vs untreated) was “significant up-regulation”. The “IL-6 production by PM” value ([2]; 18 h, P<0.05 vs untreated, n = 7) was “significant up-regulation”, the “IkBα phosphorylation (pIkBα normalized against IkBα)” value (IkBα) was “increased activation of pIkBα” and the “TLR-4 gene expression, 1 h” value (TLR-4 gene; 1 h) was “significant increase”. For the same sequence, the “TLR-4 gene expression, 6 h” value (TLR-4 gene; 6 h) was “declined”, the “Percentage of TLR-4 positive cells” value (TLR-4) was “significant increase” and the “Percentage of TLR-4 positive cells” value (TLR-4; listed as VH CDR3) was 38.1.
